Data reported in US20240182406A1, “COMPOUNDS AS SOLUBLE EPOXIDE HYDROLASE INHIBITORS” (UNIVERSITAT DE BARCELONA, priority 2021, published 2024).
pIC50: −log10 of the molar value. Marks after values point to notes of the source that are not given here.

Legend:
human sEH = human sEH (Homo sapiens (Human), UniProt P34913); assay: In vitro determination of sEH inhibition activity (fluorescent assay, CMNPC substrate); assay type: biochemical; conditions: purified recombinant human sEH, CMNPC 5 μM, 30° C., mean of triplicate
Sequence of human sEH (P34913 whole entry): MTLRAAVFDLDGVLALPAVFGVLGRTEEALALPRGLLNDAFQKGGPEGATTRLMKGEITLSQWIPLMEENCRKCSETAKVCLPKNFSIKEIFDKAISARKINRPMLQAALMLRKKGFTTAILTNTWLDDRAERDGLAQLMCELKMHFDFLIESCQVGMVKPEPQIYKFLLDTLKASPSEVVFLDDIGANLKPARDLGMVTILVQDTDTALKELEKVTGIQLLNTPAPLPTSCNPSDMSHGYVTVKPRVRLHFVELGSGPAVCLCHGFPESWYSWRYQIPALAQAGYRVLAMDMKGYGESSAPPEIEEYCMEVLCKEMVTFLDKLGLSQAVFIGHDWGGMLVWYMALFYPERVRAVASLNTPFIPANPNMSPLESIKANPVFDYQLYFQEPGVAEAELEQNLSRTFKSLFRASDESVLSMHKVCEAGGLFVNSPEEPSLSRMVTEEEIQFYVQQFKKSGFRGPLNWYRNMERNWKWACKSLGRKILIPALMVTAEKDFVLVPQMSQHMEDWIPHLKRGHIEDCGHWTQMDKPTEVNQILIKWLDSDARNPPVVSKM
Procedure: Cyano(6-methoxynaphthalen-2-yl)methyl 2-(3-phenyloxiran-2-yl)methylcarbonate (CMNPC); cf. Morisseau, C.; Hammock, B. D. Measurement of soluble epoxide hydrolase (sEH) activity. Curr. Protoc. Toxicol.
The fluorescent assay was used with purified recombinant human or mouse sEH proteins. The enzymes were incubated at 30° C. with the inhibitors ([I]final=0.4-100,000 nM) for 5 min in 100 mM sodium phosphate buffer (200 μL, pH 7.4) containing 0.1 mg/mL of BSA and 1% of DMSO. The substrate (CMNPC) was then added ([S]final=5 μM). […] Results were obtained by regression analysis from a linear region of the curve.

[1] = In vitro determination of microsomal stability; assay type: in vitro ADME; conditions: human microsomes, 37° C., samples at 0-60 min
Procedure: The human recombinant microsomes employed were purchased from Tebu-Xenotech. […] Samples (75 μL) were taken from each well at 0, 10, 20, 40 and 60 min and transferred to a plate containing 4° C. 75 μL acetonitrile and 30 μL of 0.5% formic acid in water were added for improving the chromatographic conditions. The plate was centrifuged (46000 g, 30 min) and supernatants were taken and analyzed in a UPLC-MS/MS (Xevo-TQD, Waters) by employing a BEH C18 column and an isocratic gradient of 0.1% formic acid in water:0.1% formic acid acetonitrile (60:40). The metabolic stability of the compounds was calculated from the logarithm of the remaining compounds at each of the time points studied.

CD1 mice = assay: Seizure assay (pentylenetetrazole, PTZ test); assay type: in vivo, mouse; conditions: 5 mg/kg by gavage 1 h prior to PTZ 85 mg/Kg s.c., monitored 30 min
Procedure: Test compounds were dissolved in 20% hydroxypropyl-beta-cyclodextrin and concentration was calculated according to the animal weigh to reach the precise dose. Animals were housed in standard care facilities with a 12 hours light-dark cycle with free access to water and food.
To investigate the ability of compounds to cross the blood-brain barrier (BBB), a standard acute test involving the administration of pro-convulsant pentylenetetrazole (PTZ) was employed [Inceoglu et al, PLoS ONE, 2013, 8(12), e80922; WO 2015/148954 A1]. In the test, PTZ was administered at 85 mg/Kg by subcutaneous route, time to onset of first clonic seizure, average of clonic seizures, tonic seizure latency and lethality were monitored for 30 min. Vehicles or compounds were administered by gavage at 5 mg/kg 1 h prior to pro-convulsant.

**Q.** What does the source list for `O=C(NC12CC3CC(F)(CC(C1)c1ccccc13)C2)N[C@H]1CC[C@H](Oc2ccc(C(=O)O)cc2)CC1` [Example 1, 4-[((1r,4r)-4-(3-(9-fluoro-5,6,8,9,10,11-hexahydro-7H-5,9:7,11-dimethanobenzo[9]annulen-7-yl)ureido)cyclohexyl)oxy]benzoic acid]?
**A.** pIC50 (human sEH): 9.30; Microsomal stability (% remanent) [1]: 77%

**Q.** Which results are given for `COc1cc2c(cc1OC)C1CC3(F)CC2CC(NC(=O)NC2CCN(C(=O)C4CCOCC4)CC2)(C1)C3` [Example 5, 1-(9-fluoro-2,3-dimethoxy-5,6,8,9,10,11-hexahydro-7H-5,9:7,11-dimethanobenzo[9]annulen-7-yl)-3-(1-(tetrahydro-2H-pyran-4-carbonyl)piperidin-4-yl)urea]?
**A.** pIC50 (human sEH): 9.22; Microsomal stability (% remanent) [1]: 100%

**Q.** Which results are given for `COc1cc2c(cc1OC)C1CC3(Cl)CC2CC(NC(=O)NC2CCN(C(=O)C4CCOCC4)CC2)(C1)C3` [Example 6, 1-(9-chloro-2,3-dimethoxy-5,6,8,9,10,11-hexahydro-7H-5,9:7,11-dimethanobenzo[9]annulen-7-yl)-3-(1-(tetrahydro-2H-pyran-4-carbonyl)piperidin-4-yl)urea]?
**A.** melting point: 147 to 150 °C; pIC50 (human sEH): 9.40; Microsomal stability (% remanent) [1]: 42%

**Q.** With `O=C(NC1CCN(c2ccc(C(=O)O)cc2)CC1)NC12CC3CC(F)(CC(C1)c1ccccc13)C2` [Example 13, 4-(4-(3-(9-fluoro-5,6,8,9,10,11-hexahydro-7H-5,9:7,11-dimethanobenzo[9]annulen-7-yl)ureido)piperidin-1-yl)benzoic acid] as the compound, how does the melting point read?
**A.** The melting point was 267 to 268 °C.

**Q.** What about the pIC50 (human sEH) of the same compound?
**A.** The pIC50 was 9.30.

**Q.** What about the “Microsomal stability (% remanent)” value [1] of the same compound?
**A.** Its value is 100%.

**Q.** Which melting point does the source give for `O=C(NC1CCN(c2ccc(C(=O)O)cc2)CC1)NC12CC3CC(Cl)(CC(C1)c1ccccc13)C2` [Example 14, 4-(4-(3-(9-chloro-5,6,8,9,10,11-hexahydro-7H-5,9:7,11-dimethanobenzo[9]annulen-7-yl)ureido)piperidin-1-yl)benzoic acid] here?
**A.** The melting point was 226 to 227 °C.

**Q.** What about the pIC50 (human sEH) of the same compound?
**A.** The pIC50 was 9.40.

**Q.** And the “Microsomal stability (% remanent)” value [1]?
**A.** The value was 99%.

**Q.** For `COC(=O)c1ccc(C(=O)N2CCC(NC(=O)NC34CC5CC(Cl)(CC(C3)c3ccccc35)C4)CC2)cc1` [Example 15, methyl 4-(4-(3-(9-chloro-5,6,8,9,10,11-hexahydro-7H-5,9:7,11-dimethanobenzo[9]annulen-7-yl)ureido)piperidine-1-carbonyl)benzoate], which melting point is on record?
**A.** Its melting point is 128 to 129 °C.

**Q.** What does the source list for `O=C(NC1CCN(C(=O)c2ccc(C(=O)O)cc2)CC1)NC12CC3CC(Cl)(CC(C1)c1ccccc13)C2` [Example 16, 4-(4-(3-(9-chloro-5,6,8,9,10,11-hexahydro-7H-5,9:7,11-dimethanobenzo[9]annulen-7-yl)ureido)piperidine-1-carbonyl)benzoic acid]?
**A.** melting point: 200 °C (dec.); pIC50 (human sEH): 9.40; Microsomal stability (% remanent) [1]: 88%

**Q.** Which “Microsomal stability (% remanent)” value [1] does the source give for `CC(=O)N1CCC(NC(=O)NC23CC4CC(C)(CC(C2)c2ccccc24)C3)CC1` [Example C1, 1-(1-acetylpiperidin-4-yl)-3-(9-methyl-5,6,8,9,10,11-hexahydro-7H-5,9:7,11-dimethanobenzo[9]annulen-7-yl)urea] here?
**A.** Its value is 1%.

**Q.** With `CC12CC3CC(NC(=O)NC4C[C@H]5CC[C@@H](C4)N5Cc4ccccc4)(CC(C1)c1ccccc13)C2` (stereo partly drawn) [Example C2, 1-((1R,3s,5S)-8-benzyl-8-azabicyclo[3.2.1]octan-3-yl)-3-(9-methyl-5,6,8,9,10,11-hexahydro-7H-5,9:7,11-dimethanobenzo[9]annulen-7-yl)urea] as the compound, how does the pIC50 (human sEH) read?
**A.** The pIC50 was 8.33.

**Q.** What about the “Microsomal stability (% remanent)” value [1] of the same compound?
**A.** Its value is 0.1%.

**Q.** With `CC12CC3CC(NC(=O)Nc4ccc(F)c(F)c4F)(CC(C1)c1ccccc13)C2` [Example C4, 1-(9-methyl-6,7,8,9,10,11-hexahydro-5H-5,9:7,11-dimethanobenzo[9]annulen-7-yl)-3-(2,3,4-trifluorophenyl)urea] as the compound, how does the pIC50 (human sEH) read?
**A.** The pIC50 was 8.96.

**Q.** What about the “Microsomal stability (% remanent)” value [1] of the same compound?
**A.** Its value is 7%.

**Q.** With `CC12CC3CC(NC(=O)NC4CCN(Cc5ccccc5)CC4)(CC(C1)c1ccccc13)C2` [Example C5, 1-(1-benzylpiperidin-4-yl)-3-(9-methyl-5,6,8,9,10,11-hexahydro-7H-5,9:7,11-dimethanobenzo[9]annulen-7-yl)urea] as the compound, how does the pIC50 (human sEH) read?
**A.** Its pIC50 is 8.82.

**Q.** And the “Microsomal stability (% remanent)” value [1]?
**A.** The value was 0.1%.

**Q.** With `CC(=O)N1CCC(NC(=O)NC23CC4CC(C)(CC(C2)c2cc(F)ccc24)C3)CC1` (centres unmarked) [Example C8, 1-(1-acetylpiperidin-4-yl)-3-(2-fluoro-9-methyl-5,6,8,9,10,11-hexahydro-7H-5,9:7,11-dimethanobenzo[9]annulen-7-yl)urea] as the compound, how does the pIC50 (human sEH) read?
**A.** Its pIC50 is 9.05.

**Q.** What about the “Microsomal stability (% remanent)” value [1] of the same compound?
**A.** The value was 22%.

**Q.** What does the source list for `CC(=O)N1CCC(NC(=O)NC23CC4CC(C)(CC(C2)c2c(F)cccc24)C3)CC1` (centres unmarked) [Example C9, 1-(1-acetylpiperidin-4-yl)-3-(1-fluoro-9-methyl-5,6,8,9,10,11-hexahydro-7H-5,9:7,11-dimethanobenzo[9]annulen-7-yl)urea]?
**A.** pIC50 (human sEH): 9.05; Microsomal stability (% remanent) [1]: 16%

**Q.** With `COc1ccc2c(c1)C1CC3(C)CC2CC(NC(=O)NC2CCN(C(C)=O)CC2)(C1)C3` (centres unmarked) [Example C10, 1-(1-acetylpiperidin-4-yl)-3-(2-methoxy-9-methyl-5,6,8,9,10,11-hexahydro-7H-5,9:7,11-dimethanobenzo[9]annulen-7-yl)urea] as the compound, how does the pIC50 (human sEH) read?
**A.** The pIC50 was 8.92.

**Q.** What about the “Microsomal stability (% remanent)” value [1] of the same compound?
**A.** The value was 33%.

**Q.** With `CC(=O)c1ccc(N2CCC(NC(=O)NC34CC5CC(C)(CC(C3)c3ccccc35)C4)CC2)cc1` [Example C12, 1-(1-(4-acetylphenyl)piperidin-4-yl)-3-(9-methyl-5,6,8,9,10,11-hexahydro-7H-5,9:7,11-dimethanobenzo[9]annulen-7-yl)urea] as the compound, how does the pIC50 (human sEH) read?
**A.** The pIC50 was 8.54.

**Q.** What about the “Microsomal stability (% remanent)” value [1] of the same compound?
**A.** Its value is 0.7%.

**Q.** Which Average clonic seizure (CD1 mice) does the source give for `CCC(=O)N1CCC(NC(=O)Nc2ccc(OC(F)(F)F)cc2)CC1` [TPPU, N-[1-(1-Oxopropyl)-4-piperidinyl]-N′-[4-(trifluoromethoxy)phenyl]urea, reference compound] here?
**A.** Its Average clonic seizure is 3.67.

**Q.** What about the “Mean time to clonic seizure latency” value (CD1 mice) of the same compound?
**A.** Its value is 605.33 s.

**Q.** What about the “Protected from tonic/total (Mortality)” value (CD1 mice) of the same compound?
**A.** Its value is 5/6****.
